Measured values as given in patent publication US6204284A, “Use of 1-(substitutedphenyl)-3-azabicyclo[3.1.0]hexanes for the treatment of chemical dependencies” (priority 1995, dated 2001).
Entries after “also recorded” stand apart in the source; their conditions may differ.

What was measured:
[1] = test system: Norepinephrine (NE) reuptake in rat brain synaptosomes; experiment: Inhibition of rat synaptosomal uptake of 3H-norepinephrine; format: biochemical; conditions: rat diencephalic-mid brain crude synaptosomes; 3H-NE 2×10^-8 M; Hill analysis
Source text: (§1) Male Wistar rats weighing approximately 180-200 g are decapitated and their brains rapidly removed and dissected according to the method of Glowinski and Iversen. Glowinski, J. and Iversen, L. L., Regional studies of catecholamines in the rat brain I. The disposition of 3H-norepinephrine, 3H-dopamine and 3H-DOPA in various regions of the brain. J. Neurochem. 13:655-669, 1966.
(§2) Striatal tissues are pooled from three rat brains for the uptake of 3H-dopamine (3H-DA) and diencephalic-mid brain areas were used for the uptake of 3H-norepinephrine (3H-NE) and 3H-serotonin (3H-5HT). The tissues are immediately weighed and homogenized with a teflon-glass pestle homogenizer in 10 volumes of ice cold 0.32 M sucrose. The homogenates are centrifuged at 4° C. at 900×g for 10 minutes to remove nuclear particles and cellular debris. The supernatants are carefully withdrawn and transferred into clean test tubes kept in ice. Aliquots of these preparations containing crude synaptic nerve endings are used in subsequent uptake studies.
(§3) Amine uptake in crude synaptosomes is determined by a method essentially the same as that described by Snyder and Coyle, Snyder, S. H. and Coyle, J. T. Regional differences in 3H-norepinephrine and 3H-dopamine uptake into rat brain homogenates. J. Pharmacol. Exp. Ther. 165:78-86, 1969. Briefly, a 0.1 ml aliquot of the above tissue preparation is added to test tubes containing 3.7 ml of Krebs-Ringer phosphate buffer pH 7.4 with glucose (2 mg/ml), calcium chloride 0.024%, ascorbic acid (0.2 mg/ml) and nialamide (1.24×10^-5M). 1-(3,4-Dichlorophenyl)-3-azabicyclo[3.1.0]hexane hydrochloride at varying concentrations (0.01-2.5 μM) is added in a 0.1 ml volume. The incubation mixtures are agitated at 37° C. for 10 minutes under an atmosphere of 95% oxygen and 5% CO2 in a Dubnoff metabolic shaker to ensure irreversible inhibition of monoamine oxidase (MAO). After this initial pre-incubation period, the tubes are returned to the ice bath. 3H-DA, 3H-NE or 3H-5HT is added in a 0.1 ml volume to give a final concentration of labeled amine of 2×10^-8 M, and the incubation at 37° C. is continued for an additional 4 min. A set of tubes serving as control (uptake at 0° C.) is left in an ice bath. After the final incubation period, the samples are cooled in ice and then centrifuged at 4° C. at 10,000×g. The supernatant fluid is gently poured off from each tube. The surface of the pellet of each sample is washed with 5 ml of ice cold 0.9% sodium chloride which is then aspirated off without disturbing the pellet. The pellet is resuspended in a cintillation fluid ad radioactivity was determined. Protein content in the tissue samples is determined by the method of Lowry et al. Lowry, O. H., Rosebrough, N. J., Farr, A. L. and Randall, R. J. Protein measurement with the folin reagent. J. Biol. Chem. 193:265, 1951. The concentration of drug which inhibits the uptake of the labeled amine by 50% is determined by Hill analysis of the data.

[2] = test system: Serotonin (5-HT) reuptake in rat brain synaptosomes; experiment: Inhibition of rat synaptosomal uptake of 3H-serotonin; format: biochemical; conditions: rat diencephalic-mid brain crude synaptosomes; 3H-5HT 2×10^-8 M; Hill analysis
Source text: as §1, §2, §3

[3] = test system: Dopamine (DA) reuptake in rat brain synaptosomes; experiment: Inhibition of rat synaptosomal uptake of 3H-dopamine; format: biochemical; conditions: rat striatal crude synaptosomes; 3H-DA 2×10^-8 M; Hill analysis
Source text: as §1
Striatal tissues are pooled from three rat brains for the uptake of 3H-dopamine (3H-DA) and diencephalic-mid brain areas were used for the uptake of 3H-norepinephrine (3H-NE) and 3H-serotonin (3H-5HT). The tissues are immediately weighed and homogenized with a teflon-glass pestle homogenizer in 10 volumes of ice cold 0.32 M sucrose. […]
Amine uptake in crude synaptosomes is determined by a method essentially the same as that described by Snyder and Coyle, Snyder, S. H. and Coyle, J. T. Regional differences in 3H-norepinephrine and 3H-dopamine uptake into rat brain homogenates. […] The pellet is resuspended in a cintillation fluid ad radioactivity was determined. Protein content in the tissue samples is determined by the method of Lowry et al. Lowry, O. H., Rosebrough, N. J., Farr, A. L. and Randall, R. J. Protein measurement with the folin reagent. […] The concentration of drug which inhibits the uptake of the labeled amine by 50% is determined by Hill analysis of the data.

[4] = test system: Male Wistar rats; experiment: Free-choice ethanol (6% v/v) vs tap water drinking, Part I; format: in vivo, rat; conditions: 30 mg/kg i.p. 7 days, mean ± S.D.
Method: (§4) Male Wistar rats are presented with an everyday free-choice between a 6% (v/v) ethanol solution and tap water. Following a seven-day baseline period, which establishes a pattern of stable drinking, only those animals whose consumption is greater than 50% of their total fluid intake are given intraperitoneal injections of three drugs. In part I citalopram (positive control) a neuronal serotonin uptake inhibitor at a dose of 30 mg/kg, […], and 1-(3,4-dichlorophenyl)-3-azabicyclo[3.1.0]hexane hydrochloride, also a serotonin uptake inhibitor, at doses of 5, 10 and 20 mg/kg are given by intraperitoneal injection for seven days. In part II, animals are given intraperitoneal injections of diazepam at a dose of 10 mg/kg and again the positive control used is citalopram at 30 mg/kg. Treatment period for part II also is over a seven-day period. Following the seven-day treatment period, a post-treatment period which lasted for an additional seven days is conducted where the animals are presented with a free choice between ethanol and water in order to determine the rate of recovery of ethanol drinking. During baseline, drug treatment and post-treatment periods, ethanol consumption by the rats is calculated in terms of daily ethanol preference ratio (volume of ethanol per volume of total daily fluid intake) and in terms of daily absolute of ethanol ingested (g/kg body weight).
(§5) Two hundred (200) drug-naive male Wistar rats obtained from the Canadian Breeding Farm Laboratories in Charles River Canada are used. All animals weigh between 180-200 g at the beginning of the experiment.
(§6) All animals are individually housed in stainless steel cages, in a room regulated for constant temperature, humidity and a 12-hour light/dark cycle (7:00 a.m.-7:00 p.m.). Each cage is equipped with two calibrated glass Richter tubes to deliver the fluids (ethanol and water) to the animals. All animals are presented with a free choice between ethanol and tap water throughout the experiment. The drinking vessels are randomly reversed in order to avoid bias generated by a position preference in the animals. In addition, Purina Rat Chow is made available throughout the experiment on an ad libitum basis.
(§7) At approximately the same time every day, 1300 h, the volume in mls of ethanol and tap water consumed by each animal is recorded. All tubes are then removed from the cages, rinsed and refilled with the appropriate fluids, i.e., ethanol solution and tap water. Also, all animals are weighed and their corresponding body weights recorded. At this time, additional food is provided.
(§8) Drugs used in part I are dissolved in Ringers solution to form the required doses. Drugs used in part II are suspended in a vehicle which consists of a 2% pre-boiled starch solution containing 5% polyethylene glycol 400 and tween 80 (1 drop/10 ml vehicle). All drugs are administered intraperitoneally according to the schedule (see Treatment period).
Group 2--citalopram 30 mg/kg (n=10)
Group 3--1-(3,4-dichlorophenyl)-3-azabicyclo[3.1.0]hexane hydrochloride 5 mg/kg (n=10)
Group 4--1-(3,4-dichlorophenyl)-3-azabicyclo[3.1.0]hexane hydrochloride 10 mg/kg (n=10)
Group 5--1-(3,4-dichlorophenyl)-3-azabicyclo[3.1.0]hexane hydrochloride 20 mg/kg (n=10)
(§9) Post-treatment period:--Upon cessation of the drug treatment period, the animals are presented with a free choice between 6% ethanol and tap water for an additional 7 days in order to determine the rate of recovery of ethanol drinking.

[5] = test system: Male Wistar rats; experiment: Free-choice ethanol (6% v/v) vs tap water drinking, Part II; format: in vivo, rat; conditions: for Ethanol Intake / Food Consumption / Ethanol Preference / Total Fluid Intake: mean ± S.D.
Method: as §4, §5, §6, §7, §8
Group 2--citalopram 30 mg/kg (n=7)
Group 3--diazepam 10 mg/kg (n=7)
as §9

[6] = Treatment period, listed as citalopram, 30 mg/kg
[7] = 30 mg/kg i.p. 7 days, Baseline period
[8] = 30 mg/kg i.p. 7 days, Baseline period, 30 mg/kg
[9] = 30 mg/kg i.p. 7 days, Baseline period, listed as citalopram, 30 mg/kg
[10] = 30 mg/kg i.p. 7 days, Post-Treatment period
[11] = 30 mg/kg i.p. 7 days, Treatment period, 30 mg/kg
[12] = 30 mg/kg i.p. 7 days, Treatment period, listed as citalopram, 30 mg/kg
[13] = 10 mg/kg i.p. 7 days, Baseline period
[14] = 10 mg/kg i.p. 7 days, Post-Treatment period
[15] = 10 mg/kg i.p. 7 days, Treatment period, 10 mg/kg
[16] = 10 mg/kg i.p. 7 days, Treatment period, listed as diazepam, 10 mg/kg

COc1ccc(C23CNCC2C3)cc1Br (racemic) [±H 3-Br-4-OCH3]
IC50 [1]: 318 nM
IC50 [2]: 260 nM

c1ccc(C23CNCC2C3)cc1 (racemic) [±H H]
IC50 [1]: 401 nM
IC50 [2]: 470 nM

Cc1ccc(C23CNCC2C3)cc1 (racemic) [±H p-CH3]
IC50 [1]: 741 nM
IC50 [2]: 137 nM
IC50 [3]: 2360 nM

Clc1ccc(C23CNCC2C3)cc1 (racemic) [±H p-Cl]
IC50 [1]: 274 nM
IC50 [2]: 169 nM

Fc1ccc(C23CNCC2C3)cc1 (racemic) [±H p-F]
IC50 [2]: 811 nM

Cc1ccc(C23CNCC2C3)cc1 (single isomer, unassigned) [+H p-CH3]
IC50 [1]: 215 nM
IC50 [2]: 96 nM

Clc1ccc(C23CNCC2C3)cc1 (single isomer, unassigned) [+H p-Cl]
IC50 [1]: 279 nM
IC50 [2]: 55 nM

CN(C)CCCC1(c2ccc(F)cc2)OCc2cc(C#N)ccc21 (stereo not shown) [Citalopram]
Ethanol Intake ([4]; Baseline period): 4.49 ± 1.18 g/kg body weight
Ethanol Preference ([4]; Baseline period): 75.78 ± 18.09%
Food Consumption ([4]; Baseline period): 20.14 ± 1.71 g/day
Total Fluid Intake ([4]; Baseline period): 124.19 ± 12.35 mL/kg/day
Ethanol Intake ([4]; Post-Treatment period): 3.32 ± 1.86 g/kg body weight
Ethanol Preference ([4]; Post-Treatment period): 57.81 ± 32.23%
Food Consumption ([4]; Post-Treatment period): 21.47 ± 1.94 g/day
Total Fluid Intake ([4]; Post-Treatment period): 121.47 ± 14.98 mL/kg/day
Ethanol Intake ([4]; Treatment period): 2.34 ± 1.44 g/kg body weight
Ethanol Preference ([4]; Treatment period, 30 mg/kg): 61.06 ± 35.09%
Food Consumption ([4]; Treatment period, 30 mg/kg): 11.96 ± 3.56 g/day
Total Fluid Intake ([4]; Treatment period, 30 mg/kg): 82.70 ± 9.45 mL/kg/day
Ethanol Preference [4, 6]: slight but insignificant decrease in ethanol preference
Food Consumption [4, 6]: significant decrease in food consumption
Total Fluid Intake [4, 6]: 82.70 mL/kg/day
Ethanol Intake [5, 7]: 4.86 ± 1.09 g/kg body weight
Food Consumption [5, 7]: 19.82 ± 1.87 g/day
Ethanol Preference [5, 8]: 86.16 ± 14.74%
Total Fluid Intake [5, 8]: 117.70 ± 11.00 mL/kg/day
Ethanol Preference [5, 9]: 86.16%
Total Fluid Intake [5, 9]: 117.70 mL/kg/day
Ethanol Intake [5, 10]: 3.87 ± 1.91 g/kg body weight
Ethanol Preference [5, 10]: 68.90%
Food Consumption [5, 10]: 19.86 g/day
Total Fluid Intake [5, 10]: 114.14 mL/kg/day
Ethanol Intake [5, 11]: 2.95 ± 1.59 g/kg body weight
Ethanol Preference [5, 11]: 69.17 ± 30.25%
Food Consumption [5, 11]: 14.20 ± 2.76 g/day
Total Fluid Intake [5, 11]: 86.79 ± 13.15 mL/kg/day
Ethanol Intake [5, 12]: partial effect
Ethanol Preference [5, 12]: 69.17%
Food Consumption [5, 12]: 14.20 g/day
Total Fluid Intake [5, 12]: 86.79 mL/kg/day
Food intake lower than baseline level during treatment ([5]; 30 mg/kg i.p. 7 days, Treatment vs baseline): approximately 25%

CN1C(=O)CN=C(c2ccccc2)c2cc(Cl)ccc21 [Diazepam]
Ethanol Intake [5, 13]: 3.92 ± 1.75 g/kg body weight
Ethanol Preference [5, 13]: 73.21 ± 26.62%
Food Consumption [5, 13]: 21.24 ± 1.94 g/day
Total Fluid Intake [5, 13]: 111.17 ± 11.23 mL/kg/day
Ethanol Intake [5, 14]: 3.95 ± 1.91 g/kg body weight
Ethanol Preference [5, 14]: 72.15%
Food Consumption [5, 14]: 20.98 g/day
Total Fluid Intake [5, 14]: 111.57 mL/kg/day
Ethanol Intake [5, 15]: 3.48 ± 1.51 g/kg body weight
Ethanol Preference [5, 15]: 72.76 ± 28.03%
Food Consumption [5, 15]: 20.75 ± 2.04 g/day
Total Fluid Intake [5, 15]: 99.03 ± 8.85 mL/kg/day
Ethanol Intake [5, 16]: no effect on ethanol intake; also recorded: no effect to attenuate voluntary ethanol consumption
Ethanol Preference [5, 16]: virtually no change
Food Consumption [5, 16]: no effect on food intake
Total Fluid Intake [5, 16]: does not affect total fluid intake
